Among the data in EP4755888A1 (ILAb Co., Ltd., priority 2023, dated 2025) are IC50 values, retold here.

Sequence of PD-1/PD-L1 (Q9NZQ7 19-238 limits assumed): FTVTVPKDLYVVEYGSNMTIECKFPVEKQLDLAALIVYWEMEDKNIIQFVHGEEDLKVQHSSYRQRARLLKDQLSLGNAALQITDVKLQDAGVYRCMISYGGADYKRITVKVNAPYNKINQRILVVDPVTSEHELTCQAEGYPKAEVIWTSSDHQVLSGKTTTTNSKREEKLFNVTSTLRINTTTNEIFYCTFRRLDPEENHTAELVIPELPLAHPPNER

This assay addresses PD-1/PD-L1 (Homo sapiens, UniProt Q9NZQ7). The assay is described as follows: TR-FRET PD-1/PD-L1 binding inhibition at the molecular level (free proteins). To be noted: Tag1-PD-L1 and Tag2-PD-1 proteins, twelve concentrations from 200 nM, 2 hours at room temperature, read-out: FRET assay (IC50). A digest of the protocol: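 HTRF read-out at 665/620 nm after 2 h at room temperature. Detection used anti-Tag1 Eu cryptate plus anti-Tag2 XL665 antibodies. Tagged PD-L1 and PD-1 proteins were pre-mixed with compound across twelve […] 1:2 dilutions starting at 200 nM.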
Take `O=C(Nc1cccc(-c2cccc(Nc3nccc4cc(CN5CC[C@@H](O)C5)cnc34)c2Cl)c1Cl)c1cc2n(n1)CCCC2N1CC[C@@H](C(=O)O)C1` (stereo partly drawn) [Compound 22, (3R)-1-(2-((2,2'-dichloro-3'-((3-(((R)-3-hydroxypyrrolidin-1-yl)methyl)-1,7-naphthyridin-8-yl)amino)-[1,1'-biphenyl]-3-yl)carbamoyl)-4,5,6,7-tetrahydropyrazolo[1,5-a]pyridin-4-yl)pyrrolidine-3-carboxylic acid]: the IC50 is under 10 nM.

Consider `CN[C@@H]1CCCn2nc(C(=O)Nc3cccc(-c4cccc(Nc5nc(C(F)F)nc6cc(CN7CC[C@@H](O)C7)cnc56)c4Cl)c3Cl)cc21` [Compound 355, (R)-N-(2,2'-dichloro-3'-((2-(difluoromethyl)-7-(((R)-3-hydroxypyrrolidin-1-yl)methyl)pyrido[3,2-d]pyrimidin-4-yl)amino)-[1,1'-biphenyl]-3-yl)-4-(methylamino)-4,5,6,7-tetrahydropyrazolo[1,5-a]pyridine-2-carboxamide], for which the IC50 is 10 to 100 nM. Then `Cc1c(NC(=O)c2cc3n(n2)CCC[C@@H]3N2CCC(C(=O)O)CC2)cccc1-c1cccc(Nc2nc(C(F)F)nc3cc(CN4CC[C@@H](O)C4)cnc23)c1C` [Compound 267, 1-((S)-2-((3'-((2-(difluoromethyl)-7-(((R)-3-hydroxypyrrolidin-1-yl)methyl)pyrido[3,2-d]pyrimidin-4-yl)amino)-2,2'-dimethyl-[1,1'-biphenyl]-3-yl)carbamoyl)-4,5,6,7-tetrahydropyrazolo[1,5-a]pyridin-4-yl)piperidine-4-carboxylic acid], with under 10 nM; and `CC(=O)NCCNC1CCCn2nc(-c3cccc(-c4cccc(Nc5nccc6cc(CN7CC[C@@H](O)C7)cnc56)c4C)c3C)cc21` (stereo partly drawn) [Compound 175, N-(2-((2-(3'-((3-(((R)-3-hydroxypyrrolidin-1-yl)methyl)-1,7-naphthyridin-8-yl)amino)-2,2'-dimethyl-[1,1'-biphenyl]-3-yl)-4,5,6,7-tetrahydropyrazolo[1,5-a]pyridin-4-yl)amino)ethyl)acetamide], with under 10 nM; and `O=C(O)CN[C@H]1CCCn2nc(C(=O)Nc3cccc(-c4cccc(NC(=O)c5cc6n(n5)CCC[C@@H]6NCCO)c4Cl)c3Cl)cc21` [Compound 315, 2-(((S)-2-((2,2'-dichloro-3'-((S)-4-((2-hydroxyethyl)amino)-4,5,6,7-tetrahydropyrazolo[1,5-a]pyridine-2-carboxamido)-[1,1'-biphenyl]-3-yl)carbamoyl)-4,5,6,7-tetrahydropyrazolo[1,5-a]pyridin-4-yl)amino)acetic acid], with under 10 nM. Take `O=C(O)CN[C@H]1CCCn2nc(C(=O)Nc3cccc(-c4cccc(NC(=O)c5cc6n(n5)CCC[C@@H]6NCC(=O)O)c4Cl)c3Cl)cc21` [Compound 317, 2,2'-(((4S,4'S)-2,2'-(((2,2'-dichloro-[1,1'-biphenyl]-3,3'-diyl)bis(azanediyl))bis(carbonyl))bis(4,5,6,7-tetrahydropyrazolo[1,5-a]pyridine-4,2-diyl))bis(azanediyl))diacetic acid]: the IC50 was under 10 nM. In the case of `O=C(Nc1cccc(-c2cccc(Nc3nc(C(F)(F)F)nc4cccnc34)c2Cl)c1Cl)c1cc2n(n1)CCC[C@H]2N1CC[C@@H](O)C1` [Compound 334, (R)-N-(2,2'-dichloro-3'-((2-(trifluoromethyl)pyrido[3,2-d]pyrimidin-4-yl)amino)-[1,1'-biphenyl]-3-yl)-4-((R)-3-hydroxypyrrolidin-1-yl)-4,5,6,7-tetrahydropyrazolo[1,5-a]pyridine-2-carboxamide], the IC50 lay within 10 to 100 nM. Regarding `O=C(O)CNC1CCCn2nc(-c3cccc(-c4cccc(Nc5nccc6cc(CN7CC[C@@H](O)C7)cnc56)c4Cl)c3Cl)cc21` (stereo partly drawn) [Compound 185, 2-((2-(2,2'-dichloro-3'-((3-(((R)-3-hydroxypyrrolidin-1-yl)methyl)-1,7-naphthyridin-8-yl)amino)-[1,1'-biphenyl]-3-yl)-4,5,6,7-tetrahydropyrazolo[1,5-a]pyridin-4-yl)amino)acetic acid], the IC50 was under 10 nM.
